Data as given in paper PMC7316994, “In Vitro Pharmacological Profile of a New Small Molecule Bradykinin B2 Receptor Antagonist” (Frontiers in Pharmacology, 2020).

What was measured:
mouse B2 receptor = target: T1, mouse B2 receptor (Mus musculus, UniProt P32299); test: Ca^2+ mobilization assay, HEK293T cells; format: cell-based; settings: BK at EC80 0.53 nM, n=1
T1 construct: host or cells: HEK293T cells
T1 sequence (P32299 1-392): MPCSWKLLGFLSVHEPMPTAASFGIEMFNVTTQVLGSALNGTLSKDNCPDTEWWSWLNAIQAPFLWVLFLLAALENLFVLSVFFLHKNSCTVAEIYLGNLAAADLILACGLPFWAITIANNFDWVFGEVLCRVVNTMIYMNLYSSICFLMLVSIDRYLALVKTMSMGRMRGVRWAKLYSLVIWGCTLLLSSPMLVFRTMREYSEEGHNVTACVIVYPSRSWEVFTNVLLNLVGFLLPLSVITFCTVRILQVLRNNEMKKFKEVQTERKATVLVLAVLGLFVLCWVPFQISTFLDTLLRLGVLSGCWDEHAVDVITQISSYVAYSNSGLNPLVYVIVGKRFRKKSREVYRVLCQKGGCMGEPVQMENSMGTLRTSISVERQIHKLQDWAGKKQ

[1] = target: T2, endogenous human B2 receptor (Homo sapiens, UniProt P30411); test: human isolated umbilical vein contractility assay, BK-induced contraction
T2 construct: BK-induced contraction at endogenous human B2 receptor in the umbilical vein model; from tissue; host or cells: human umbilical vein rings (donor cords after elective caesarean section)
T2 sequence (P30411 1-391): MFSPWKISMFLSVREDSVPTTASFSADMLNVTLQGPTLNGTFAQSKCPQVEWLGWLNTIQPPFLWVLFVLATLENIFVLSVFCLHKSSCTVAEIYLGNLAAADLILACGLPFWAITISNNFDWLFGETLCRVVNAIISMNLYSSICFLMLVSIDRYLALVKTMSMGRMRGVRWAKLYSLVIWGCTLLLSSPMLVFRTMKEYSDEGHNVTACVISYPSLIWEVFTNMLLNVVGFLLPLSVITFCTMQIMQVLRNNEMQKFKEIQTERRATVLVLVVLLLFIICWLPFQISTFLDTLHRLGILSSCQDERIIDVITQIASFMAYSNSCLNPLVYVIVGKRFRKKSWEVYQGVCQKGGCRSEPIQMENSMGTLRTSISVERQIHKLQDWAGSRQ

Adenosine A3 [2] = target: T3, Adenosine A3 (Homo sapiens, UniProt P0DMS8); test: radioligand binding (Table S2); settings: [125I] AB-MECA, Human recombinant HEK-293 cells
T3 sequence (P0DMS8 1-318): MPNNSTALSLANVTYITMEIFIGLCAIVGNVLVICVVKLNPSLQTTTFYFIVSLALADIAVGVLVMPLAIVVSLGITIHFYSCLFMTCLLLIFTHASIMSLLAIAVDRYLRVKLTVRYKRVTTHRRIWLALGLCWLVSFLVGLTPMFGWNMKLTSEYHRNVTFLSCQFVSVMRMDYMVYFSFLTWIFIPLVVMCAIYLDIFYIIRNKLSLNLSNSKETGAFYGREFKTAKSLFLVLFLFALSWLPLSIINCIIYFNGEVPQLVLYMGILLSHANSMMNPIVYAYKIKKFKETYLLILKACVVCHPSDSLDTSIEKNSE

[3] = tested on: Benzodiazepine BZD (central); test: radioligand binding (Table S2); settings: [3H] Flunitrazepam, Rat cerebral cortex
Dopamine transporter = target: T4, Dopamine transporter (Homo sapiens, UniProt Q01959); test: radioligand binding (Table S2); settings: [3H] BTCP, Human recombinant CHO cells
T4 construct: host or cells: CHO cells

Histamine H3 = target: T5, Histamine H3 (Homo sapiens, UniProt Q9Y5N1); test: radioligand binding (Table S2); settings: [3H] Nα-Me-histamine, Human recombinant CHO cells
T5 construct: host or cells: CHO cells

Melanocortin MC3 = target: T6, Melanocortin MC3 (Homo sapiens, UniProt P41968); test: radioligand binding (Table S2); settings: [125I] NDP-α-MSH, Human recombinant CHO cells
T6 construct: host or cells: CHO cells

Melatonin MT2 (ML1B) = target: T7, Melatonin MT2 (ML1B) (Homo sapiens, UniProt P49286); test: radioligand binding (Table S2); settings: [125I] 2-iodomelatonin, Human recombinant CHO cells
T7 construct: host or cells: CHO cells

Opioid µ (MOP) = target: T8, Opioid µ (MOP) (Homo sapiens, UniProt P35372); test: radioligand binding (Table S2); settings: [3H] DAMGO, Human recombinant HEK-293 cells
T8 construct: host or cells: HEK-293 cells

Prostanoid EP4 = target: T9, Prostanoid EP4 (Homo sapiens, UniProt P35408); test: radioligand binding (Table S2); settings: [3H] Prostaglandin E2, Human recombinant Chem-1 cells
T9 construct: host or cells: Chem-1 cells

PDE3A = PDE3A (Homo sapiens, UniProt Q14432); test: enzyme assay (Table S2); format: biochemical; settings: [3H]cAMP + cAMP (0.5 µM), Scintillation counting
Bombesin BB1 = target: T10, Bombesin BB1 (Homo sapiens, UniProt P28336); test: functional assay, intracellular [Ca2+], CHO cells (Table S2); format: cell-based
T10 construct: host or cells: CHO cells

Adenosine A3 [4] = target: T3, Adenosine A3; test: functional assay, cAMP HTRF, CHO cells (Table S2); format: cell-based; set-up: host or cells: CHO cells
Adrenergic α1A = Adrenergic α1A (Homo sapiens, UniProt P35348); test: radioligand binding (Table S2); settings: read-out: % Inhibition @ 10 µM
[5] = target: Gamma-aminobutyric acid GABAB1B (Homo sapiens, UniProt Q9UBS5); test: radioligand binding (Table S2); settings: read-out: % Inhibition @ 10 µM
Muscarinic M1 = Muscarinic M1 (Homo sapiens, UniProt P11229); test: radioligand binding (Table S2); settings: read-out: % Inhibition @ 10 µM
Sequence of Muscarinic M1 (P11229 whole entry): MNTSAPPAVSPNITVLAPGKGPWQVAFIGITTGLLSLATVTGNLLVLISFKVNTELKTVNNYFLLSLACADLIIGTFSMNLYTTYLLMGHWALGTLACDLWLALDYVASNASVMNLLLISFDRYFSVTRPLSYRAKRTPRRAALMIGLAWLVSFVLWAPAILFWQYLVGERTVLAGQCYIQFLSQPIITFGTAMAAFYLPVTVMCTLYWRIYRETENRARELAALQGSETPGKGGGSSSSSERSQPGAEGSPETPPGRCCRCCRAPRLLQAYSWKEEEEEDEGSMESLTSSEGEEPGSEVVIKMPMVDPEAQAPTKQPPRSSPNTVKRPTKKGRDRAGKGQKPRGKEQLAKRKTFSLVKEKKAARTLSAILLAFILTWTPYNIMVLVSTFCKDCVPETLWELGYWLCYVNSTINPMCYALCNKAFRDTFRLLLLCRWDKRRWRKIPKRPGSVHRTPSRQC

T10 sequence (P28336 whole entry): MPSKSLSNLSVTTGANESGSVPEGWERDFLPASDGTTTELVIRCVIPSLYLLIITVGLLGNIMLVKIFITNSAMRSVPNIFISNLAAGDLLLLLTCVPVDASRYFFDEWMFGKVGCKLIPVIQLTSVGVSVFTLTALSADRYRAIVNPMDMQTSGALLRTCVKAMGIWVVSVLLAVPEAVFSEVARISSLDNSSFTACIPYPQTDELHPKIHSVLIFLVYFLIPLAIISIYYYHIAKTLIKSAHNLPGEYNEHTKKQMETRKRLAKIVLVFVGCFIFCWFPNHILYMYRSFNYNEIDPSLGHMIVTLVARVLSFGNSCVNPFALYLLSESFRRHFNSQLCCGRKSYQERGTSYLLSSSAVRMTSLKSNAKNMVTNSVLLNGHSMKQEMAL
Sequence of Adrenergic α1A (P35348 whole entry): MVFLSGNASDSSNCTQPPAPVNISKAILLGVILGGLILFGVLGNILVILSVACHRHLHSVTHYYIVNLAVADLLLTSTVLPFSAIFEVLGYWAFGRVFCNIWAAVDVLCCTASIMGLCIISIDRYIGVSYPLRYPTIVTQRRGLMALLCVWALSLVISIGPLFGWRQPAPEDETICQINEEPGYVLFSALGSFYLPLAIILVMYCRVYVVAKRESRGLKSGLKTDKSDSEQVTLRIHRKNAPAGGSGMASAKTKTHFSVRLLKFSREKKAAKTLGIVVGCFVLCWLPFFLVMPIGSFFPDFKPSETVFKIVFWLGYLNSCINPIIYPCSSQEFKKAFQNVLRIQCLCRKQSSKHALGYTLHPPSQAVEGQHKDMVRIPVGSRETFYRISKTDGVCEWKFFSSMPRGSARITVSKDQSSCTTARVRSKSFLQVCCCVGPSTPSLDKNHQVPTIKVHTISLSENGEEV
T6 sequence (P41968 whole entry): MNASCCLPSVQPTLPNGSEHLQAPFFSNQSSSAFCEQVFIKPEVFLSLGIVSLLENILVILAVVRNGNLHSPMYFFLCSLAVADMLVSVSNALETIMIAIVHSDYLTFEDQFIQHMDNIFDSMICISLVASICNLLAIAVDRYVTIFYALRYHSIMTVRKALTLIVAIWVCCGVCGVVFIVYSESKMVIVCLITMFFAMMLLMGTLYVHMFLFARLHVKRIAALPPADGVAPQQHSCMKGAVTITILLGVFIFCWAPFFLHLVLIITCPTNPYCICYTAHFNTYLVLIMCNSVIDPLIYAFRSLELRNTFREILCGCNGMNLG
Sequence of Gamma-aminobutyric acid GABAB1B (Q9UBS5 1-844 isoform Q9UBS5-2): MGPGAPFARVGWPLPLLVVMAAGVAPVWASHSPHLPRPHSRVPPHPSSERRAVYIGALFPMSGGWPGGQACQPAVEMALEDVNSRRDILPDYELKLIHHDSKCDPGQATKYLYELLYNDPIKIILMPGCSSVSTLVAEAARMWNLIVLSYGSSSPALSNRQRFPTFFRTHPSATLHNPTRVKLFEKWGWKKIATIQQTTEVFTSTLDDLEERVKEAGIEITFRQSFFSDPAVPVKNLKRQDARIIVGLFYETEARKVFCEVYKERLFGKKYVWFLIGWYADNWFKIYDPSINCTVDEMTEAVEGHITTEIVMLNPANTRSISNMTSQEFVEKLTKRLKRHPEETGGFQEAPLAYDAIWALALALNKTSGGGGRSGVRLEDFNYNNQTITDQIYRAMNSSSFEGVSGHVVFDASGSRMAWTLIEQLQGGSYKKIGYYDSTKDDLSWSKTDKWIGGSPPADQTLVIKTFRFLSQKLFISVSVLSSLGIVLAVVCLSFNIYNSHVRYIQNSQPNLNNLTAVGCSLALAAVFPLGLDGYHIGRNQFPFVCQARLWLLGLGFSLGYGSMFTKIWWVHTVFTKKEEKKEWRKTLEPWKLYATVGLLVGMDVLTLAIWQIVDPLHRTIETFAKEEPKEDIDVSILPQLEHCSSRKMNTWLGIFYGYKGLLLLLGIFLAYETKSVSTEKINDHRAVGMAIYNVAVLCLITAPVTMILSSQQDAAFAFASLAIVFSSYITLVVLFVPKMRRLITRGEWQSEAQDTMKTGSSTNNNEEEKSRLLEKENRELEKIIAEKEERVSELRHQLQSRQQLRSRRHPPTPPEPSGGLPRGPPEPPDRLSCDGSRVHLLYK
T9 sequence (P35408 whole entry): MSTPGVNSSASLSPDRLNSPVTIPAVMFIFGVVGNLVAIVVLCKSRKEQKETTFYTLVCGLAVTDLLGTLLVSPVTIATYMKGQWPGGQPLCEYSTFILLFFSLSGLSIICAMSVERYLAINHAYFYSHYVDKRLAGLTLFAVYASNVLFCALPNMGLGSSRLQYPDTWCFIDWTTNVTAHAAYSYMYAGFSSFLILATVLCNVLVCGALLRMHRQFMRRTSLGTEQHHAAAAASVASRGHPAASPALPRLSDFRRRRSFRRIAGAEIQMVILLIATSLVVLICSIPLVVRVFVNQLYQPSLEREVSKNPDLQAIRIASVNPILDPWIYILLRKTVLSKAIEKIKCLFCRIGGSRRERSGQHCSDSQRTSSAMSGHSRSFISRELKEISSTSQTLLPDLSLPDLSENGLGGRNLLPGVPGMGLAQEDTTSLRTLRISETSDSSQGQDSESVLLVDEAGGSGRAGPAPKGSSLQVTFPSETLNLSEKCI
T5 sequence (Q9Y5N1 whole entry): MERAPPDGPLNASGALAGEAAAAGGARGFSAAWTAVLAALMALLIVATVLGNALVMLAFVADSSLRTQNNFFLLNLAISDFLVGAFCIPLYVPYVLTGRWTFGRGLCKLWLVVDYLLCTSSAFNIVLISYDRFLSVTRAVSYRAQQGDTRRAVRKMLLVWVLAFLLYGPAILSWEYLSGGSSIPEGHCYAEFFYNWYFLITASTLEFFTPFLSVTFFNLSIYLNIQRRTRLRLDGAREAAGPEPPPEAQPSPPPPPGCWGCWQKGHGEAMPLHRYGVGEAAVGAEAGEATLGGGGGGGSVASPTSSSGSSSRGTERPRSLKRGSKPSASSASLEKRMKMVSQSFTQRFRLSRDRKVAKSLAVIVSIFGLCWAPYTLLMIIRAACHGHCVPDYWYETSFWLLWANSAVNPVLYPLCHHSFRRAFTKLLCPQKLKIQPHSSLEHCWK
T7 sequence (P49286 whole entry): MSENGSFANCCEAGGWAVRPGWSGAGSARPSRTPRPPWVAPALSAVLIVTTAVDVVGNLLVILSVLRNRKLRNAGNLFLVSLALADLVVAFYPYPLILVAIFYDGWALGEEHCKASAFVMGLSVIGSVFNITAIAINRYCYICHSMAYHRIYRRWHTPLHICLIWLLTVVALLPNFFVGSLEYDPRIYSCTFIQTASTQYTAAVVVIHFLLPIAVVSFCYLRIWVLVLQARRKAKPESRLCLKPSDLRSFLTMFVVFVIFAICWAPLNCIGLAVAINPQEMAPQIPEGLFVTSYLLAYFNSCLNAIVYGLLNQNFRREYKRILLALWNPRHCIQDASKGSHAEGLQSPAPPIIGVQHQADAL
Sequence of PDE3A (Q14432 whole entry): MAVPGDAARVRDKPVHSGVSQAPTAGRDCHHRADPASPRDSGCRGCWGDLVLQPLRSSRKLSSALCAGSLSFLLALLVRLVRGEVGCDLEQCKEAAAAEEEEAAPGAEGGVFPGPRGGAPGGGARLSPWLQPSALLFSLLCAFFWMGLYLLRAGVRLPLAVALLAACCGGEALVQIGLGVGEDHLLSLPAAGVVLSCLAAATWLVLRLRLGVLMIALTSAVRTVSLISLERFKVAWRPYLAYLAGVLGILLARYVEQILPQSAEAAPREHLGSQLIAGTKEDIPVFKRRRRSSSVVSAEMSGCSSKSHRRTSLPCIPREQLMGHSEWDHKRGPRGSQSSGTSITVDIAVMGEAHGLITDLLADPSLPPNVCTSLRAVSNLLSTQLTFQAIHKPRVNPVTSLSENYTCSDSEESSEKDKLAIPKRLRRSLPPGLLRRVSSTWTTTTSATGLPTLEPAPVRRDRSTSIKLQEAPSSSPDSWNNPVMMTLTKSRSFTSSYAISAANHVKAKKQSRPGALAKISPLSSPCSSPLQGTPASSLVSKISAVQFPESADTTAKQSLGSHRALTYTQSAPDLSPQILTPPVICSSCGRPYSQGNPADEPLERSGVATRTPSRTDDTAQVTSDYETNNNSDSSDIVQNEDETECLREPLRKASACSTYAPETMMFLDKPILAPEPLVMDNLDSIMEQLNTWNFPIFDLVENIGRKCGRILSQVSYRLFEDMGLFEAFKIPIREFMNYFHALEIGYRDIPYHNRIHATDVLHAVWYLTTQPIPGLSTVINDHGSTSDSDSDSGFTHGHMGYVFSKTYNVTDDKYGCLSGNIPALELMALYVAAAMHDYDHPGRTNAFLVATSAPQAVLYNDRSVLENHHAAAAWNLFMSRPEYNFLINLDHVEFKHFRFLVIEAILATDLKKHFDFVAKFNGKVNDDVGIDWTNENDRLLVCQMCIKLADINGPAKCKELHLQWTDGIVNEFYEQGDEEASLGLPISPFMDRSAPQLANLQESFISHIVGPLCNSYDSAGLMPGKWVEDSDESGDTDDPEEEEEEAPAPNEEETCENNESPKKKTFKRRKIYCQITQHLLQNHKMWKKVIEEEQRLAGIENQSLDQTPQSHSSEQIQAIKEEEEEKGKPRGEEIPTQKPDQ

`Cc1cc(-c2ncnn2C)c2cccc(OCc3c(Cl)cc(F)cc3[C@H](C)NC(=O)COC(F)F)c2n1` [Compound 3, (S)-N-(1-(3-chloro-5-fluoro-2-((2-methyl-4-(1-methyl-1H-1,2,4-triazol-5-yl)quinolin-8-yloxy)methyl)phenyl)ethyl)-2-(difluoromethoxy)acetamide] gave an IC50 (mouse B2 receptor) of ~1200 nM, a Kb (mouse B2 receptor) of ~350 nM and a Kb [1] of 0.214 nM. For the same molecule, the “type of antagonism of BK” value ([1]; BK concentration-effect curves, Emax) was “competitive”, the pA2 ([1]; Schild plot, Pharm/PCS, ± S.E.M. where given) was 9.67 ± 0.42 and the Schild plot slope ([1]; Schild regression, Pharm/PCS, ± S.E.M. where given) was −0.76. For the same molecule, the “Maximal BK-induced response in absolute force units ± S.E.M.” value (from here on “Maximal BK-induced response”) ([1]; antagonist 1 nM, vehicle for Compound 3 1.52 ± 0.20) was 1.75 ± 0.32 grams-weight, the “Maximal BK-induced response” value ([1]; antagonist 10 nM, vehicle: Icatibant 1.90, Compound 1 […], Compound 2 2.25, Compound 3 1.52) was 2.29 ± 0.24 grams-weight and the “Maximal BK-induced response” value ([1]; antagonist 100 nM, vehicle: Icatibant 1.90, Compound 1 […], Compound 2 2.25, Compound 3 1.52) was 2.42 ± 0.36 grams-weight. For the same molecule, the “Maximal BK-induced response” value ([1]; antagonist 1 μM, vehicle: Icatibant 1.90, Compound 1 […], Compound 2 2.25, Compound 3 1.52) was 1.25 ± 0.14 grams-weight, the “pA2 value converted into nM” value ([1]; potency from pA2) was 0.21 nM and the inhibition at 10 µM (Adenosine A3 [2]) was 39.8%. For the same molecule, the “% Inhibition @ 10 µM” value [3] was -25.8%, the inhibition at 10 µM (Dopamine transporter) was 2.2% and the inhibition at 10 µM (Histamine H3) was 6.2%. It also gave an inhibition at 10 µM (Melanocortin MC3) of -8.2%, an inhibition at 10 µM (Melatonin MT2 (ML1B)) of 4.8% and an inhibition at 10 µM (Opioid µ (MOP)) of 13.6%. For the same molecule, the inhibition at 10 µM (Prostanoid EP4) was 3%, the inhibition at 10 µM (PDE3A) was 15.9% and the inhibition at 10 µM (Bombesin BB1; CHO, read-out: % inhibition of reference agonist response @ 10 µM (antagonist effect), Neuromedin B (0.1 nM)) was 28.5%. The “% of reference agonist response @ 10 µM (agonist effect)” value (Bombesin BB1; reference neuromedin B (10 nM)) was 4.4%, the inhibition at 10 µM (Adenosine A3 [4]; CHO, read-out: % inhibition of reference agonist response @ 10 µM (antagonist effect), IB-MECA (10 nM)) was 8.5% and the “% of reference agonist response @ 10 µM (agonist effect)” value (Adenosine A3 [4]; reference IB-MECA (100 nM)) was 10.5%. It also gave an inhibition at 10 µM (Adrenergic α1A) of 13.3%, an inhibition at 10 µM [5] of 9% and an inhibition at 10 µM (Muscarinic M1) of 3.7%.
